Measurements published in PubChem BioAssay AID1919008 (Molecular Pharmacology Branch, DTP, NCI, 2023).

Tested on: DMS-114 complex spheroids with HUVEC/MSC, growth % test/control
Assay: Anticancer human tumor DMS-114 cell line growth inhibition [AhR];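 further: spheroids exposed to agents for 7 days before readout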;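 on viability, T/C: 100% = DMSO vehicle control wells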
Conditions: for IC50: curve of first compound; for viability, T/C: stronger effect = lower value
Procedure, shortened: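 Spheroids combined tumor cells with HUVEC endothelial cells and human MSCs as stroma. AhR antagonists were paired with standard or investigational drugs, each dosed in half-log steps down from near clinical Cmax, or from 10 microM where Cmax was unknown.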

[1] = second compound 0.1 µM, first compound 0.00949 µM
[2] = second compound 0.1 µM, first compound 0.03 µM
[3] = second compound 0.1 µM, first compound 0.0949 µM
[4] = second compound 0.1 µM, first compound 0.3 µM
[5] = second compound 0.316 µM, first compound 0.00949 µM
[6] = second compound 0.316 µM, first compound 0.03 µM
[7] = second compound 0.316 µM, first compound 0.0949 µM
[8] = second compound 0.316 µM, first compound 0.3 µM
[9] = second compound 1 µM, first compound 0.00949 µM
[10] = second compound 1 µM, first compound 0.03 µM
[11] = second compound 1 µM, first compound 0.0949 µM
[12] = second compound 1 µM, first compound 0.3 µM
[13] = second compound 3.16 µM, first compound 0.00949 µM
[14] = second compound 3.16 µM, first compound 0.03 µM
[15] = second compound 3.16 µM, first compound 0.0949 µM
[16] = second compound 3.16 µM, first compound 0.3 µM
[17] = second compound 10 µM, first compound 0.00949 µM
[18] = second compound 10 µM, first compound 0.03 µM
[19] = second compound 10 µM, first compound 0.0949 µM
[20] = second compound 10 µM, first compound 0.3 µM

Question: Which IC50 (second compound 0.1 µM) does the source give for `COc1ccc([C@@H](O)c2cc(-c3ncnc4cc(N5CCOCC5)ccc34)c(F)cc2Cl)nn1` + Cc1cncc(-c2nc(NCCc3c[nH]c4ccccc34)c3ncn(C(C)C)c3n2)c1 here?
Answer: Its IC50 is greater than 10000 nM.

Question: What about the IC50 (second compound 0.316 µM) of the same compound?
Answer: Its IC50 is greater than 10000 nM.

Question: And the IC50 (second compound 1 µM)?
Answer: The IC50 was greater than 10000 nM.

Question: What about the IC50 (second compound 3.16 µM) of the same compound?
Answer: The IC50 was 7740 nM.

Question: And the IC50 (second compound 10 µM)?
Answer: Its IC50 is less than 31.6 nM.

Question: What about the viability, T/C (second compound 0.1 µM, first compound 0.0316 µM) of the same compound?
Answer: The viability, T/C was 125%.

Question: And the viability, T/C (second compound 0.1 µM, first compound 0.1 µM)?
Answer: The viability, T/C was 95.8%.

Question: And the viability, T/C (second compound 0.1 µM, first compound 0.316 µM)?
Answer: The viability, T/C was 102%.

Question: And the viability, T/C (second compound 0.1 µM, first compound 1 µM)?
Answer: Its viability, T/C is 104%.

Question: What about the viability, T/C (second compound 0.1 µM, first compound 3.16 µM) of the same compound?
Answer: The viability, T/C was 107%.

Question: And the viability, T/C (second compound 0.1 µM, first compound 10 µM)?
Answer: Its viability, T/C is 55.7%.

Question: And the viability, T/C (second compound 0.316 µM, first compound 0.0316 µM)?
Answer: The viability, T/C was 101%.

Question: And the viability, T/C (second compound 0.316 µM, first compound 0.1 µM)?
Answer: The viability, T/C was 93%.

Question: What about the viability, T/C (second compound 0.316 µM, first compound 0.316 µM) of the same compound?
Answer: The viability, T/C was 96.2%.

Question: And the viability, T/C (second compound 0.316 µM, first compound 1 µM)?
Answer: The viability, T/C was 104%.

Question: And the viability, T/C (second compound 0.316 µM, first compound 3.16 µM)?
Answer: Its viability, T/C is 87.5%.

Question: What about the viability, T/C (second compound 0.316 µM, first compound 10 µM) of the same compound?
Answer: The viability, T/C was 52.2%.

Question: What about the viability, T/C (second compound 1 µM, first compound 0.0316 µM) of the same compound?
Answer: The viability, T/C was 98.7%.

Question: And the viability, T/C (second compound 1 µM, first compound 0.1 µM)?
Answer: Its viability, T/C is 103%.

Question: And the viability, T/C (second compound 1 µM, first compound 0.316 µM)?
Answer: The viability, T/C was 99.8%.

Question: What about the viability, T/C (second compound 1 µM, first compound 1 µM) of the same compound?
Answer: The viability, T/C was 107%.

Question: And the viability, T/C (second compound 1 µM, first compound 3.16 µM)?
Answer: Its viability, T/C is 94.4%.

Question: And the viability, T/C (second compound 1 µM, first compound 10 µM)?
Answer: Its viability, T/C is 53.2%.

Question: And the viability, T/C (second compound 3.16 µM, first compound 0.0316 µM)?
Answer: The viability, T/C was 87%.

Question: And the viability, T/C (second compound 3.16 µM, first compound 0.1 µM)?
Answer: The viability, T/C was 90.1%.

Question: What about the viability, T/C (second compound 3.16 µM, first compound 0.316 µM) of the same compound?
Answer: The viability, T/C was 98.7%.

Question: What about the viability, T/C (second compound 3.16 µM, first compound 1 µM) of the same compound?
Answer: Its viability, T/C is 94.5%.

Question: And the viability, T/C (second compound 3.16 µM, first compound 3.16 µM)?
Answer: Its viability, T/C is 85.4%.

Question: What about the viability, T/C (second compound 3.16 µM, first compound 10 µM) of the same compound?
Answer: Its viability, T/C is 39.5%.

Question: And the viability, T/C (second compound 10 µM, first compound 0.0316 µM)?
Answer: The viability, T/C was 35.6%.

Question: What about the viability, T/C (second compound 10 µM, first compound 0.1 µM) of the same compound?
Answer: Its viability, T/C is 38.9%.

Question: And the viability, T/C (second compound 10 µM, first compound 0.316 µM)?
Answer: The viability, T/C was 29.7%.

Question: What about the viability, T/C (second compound 10 µM, first compound 1 µM) of the same compound?
Answer: The viability, T/C was 29.7%.

Question: And the viability, T/C (second compound 10 µM, first compound 3.16 µM)?
Answer: Its viability, T/C is 17.9%.

Question: And the viability, T/C (second compound 10 µM, first compound 10 µM)?
Answer: Its viability, T/C is 12.4%.

Question: Which IC50 (second compound 0.1 µM) does the source give for `Nc1ncn(C2CC(O)C(CO)S2)c(=O)n1` (stereo not given) + Cc1cncc(-c2nc(NCCc3c[nH]c4ccccc34)c3ncn(C(C)C)c3n2)c1 here?
Answer: The IC50 was 222 nM.

Question: And the IC50 (second compound 0.316 µM)?
Answer: The IC50 was 219 nM.

Question: What about the IC50 (second compound 1 µM) of the same compound?
Answer: The IC50 was 294 nM.

Question: And the IC50 (second compound 3.16 µM)?
Answer: Its IC50 is 293 nM.

Question: What about the IC50 (second compound 10 µM) of the same compound?
Answer: The IC50 was 43.8 nM.

Question: What about the viability, T/C (second compound 0.1 µM, first compound 0.000949 µM) of the same compound?
Answer: The viability, T/C was 101%.

Question: And the viability, T/C (second compound 0.1 µM, first compound 0.003 µM)?
Answer: The viability, T/C was 110%.

Question: What about the viability, T/C [1] of the same compound?
Answer: Its viability, T/C is 80.4%.

Question: And the viability, T/C [2]?
Answer: Its viability, T/C is 93.2%.

Question: And the viability, T/C [3]?
Answer: Its viability, T/C is 57.6%.

Question: What about the viability, T/C [4] of the same compound?
Answer: Its viability, T/C is 46.8%.

Question: What about the viability, T/C (second compound 0.316 µM, first compound 0.000949 µM) of the same compound?
Answer: The viability, T/C was 86.7%.

Question: What about the viability, T/C (second compound 0.316 µM, first compound 0.003 µM) of the same compound?
Answer: Its viability, T/C is 97.1%.

Question: What about the viability, T/C [5] of the same compound?
Answer: Its viability, T/C is 92.2%.

Question: What about the viability, T/C [6] of the same compound?
Answer: The viability, T/C was 84%.

Question: What about the viability, T/C [7] of the same compound?
Answer: The viability, T/C was 59.2%.

Question: And the viability, T/C [8]?
Answer: The viability, T/C was 46.5%.

Question: What about the viability, T/C (second compound 1 µM, first compound 0.000949 µM) of the same compound?
Answer: Its viability, T/C is 87.7%.

Question: What about the viability, T/C (second compound 1 µM, first compound 0.003 µM) of the same compound?
Answer: The viability, T/C was 95.7%.

Question: What about the viability, T/C [9] of the same compound?
Answer: Its viability, T/C is 99.5%.

Question: And the viability, T/C [10]?
Answer: The viability, T/C was 80.1%.

Question: What about the viability, T/C [11] of the same compound?
Answer: Its viability, T/C is 73%.

Question: And the viability, T/C [12]?
Answer: The viability, T/C was 49.3%.

Question: What about the viability, T/C (second compound 3.16 µM, first compound 0.000949 µM) of the same compound?
Answer: Its viability, T/C is 102%.

Question: And the viability, T/C (second compound 3.16 µM, first compound 0.003 µM)?
Answer: Its viability, T/C is 98.6%.

Question: What about the viability, T/C [13] of the same compound?
Answer: Its viability, T/C is 93.2%.

Question: What about the viability, T/C [14] of the same compound?
Answer: Its viability, T/C is 94.5%.

Question: What about the viability, T/C [15] of the same compound?
Answer: Its viability, T/C is 58.7%.

Question: What about the viability, T/C [16] of the same compound?
Answer: The viability, T/C was 49.5%.

Question: And the viability, T/C (second compound 10 µM, first compound 0.000949 µM)?
Answer: The viability, T/C was 57%.

Question: And the viability, T/C (second compound 10 µM, first compound 0.003 µM)?
Answer: The viability, T/C was 51.4%.

Question: What about the viability, T/C [17] of the same compound?
Answer: Its viability, T/C is 55.5%.

Question: And the viability, T/C [18]?
Answer: The viability, T/C was 54.7%.

Question: What about the viability, T/C [19] of the same compound?
Answer: The viability, T/C was 43.7%.

Question: And the viability, T/C [20]?
Answer: The viability, T/C was 37.7%.

Question: What does the source list for `O=C(C=Cn1cnc(-c2cc(C(F)(F)F)cc(C(F)(F)F)c2)n1)NNc1cnccn1` + Cc1cncc(-c2nc(NCCc3c[nH]c4ccccc34)c3ncn(C(C)C)c3n2)c1?
Answer: IC50 (second compound 0.1 µM): 158 nM; IC50 (second compound 0.316 µM): 175 nM; IC50 (second compound 1 µM): 166 nM; IC50 (second compound 3.16 µM): 166 nM; IC50 (second compound 10 µM): < 9.49 nM; viability, T/C [1]: 111%; viability, T/C [2]: 101%; viability, T/C [3]: 61.7%; viability, T/C [4]: 32.7%; viability, T/C (second compound 0.1 µM, first compound 0.949 µM): 15.1%; viability, T/C (second compound 0.1 µM, first compound 3 µM): 5.4%; viability, T/C [5]: 103%; viability, T/C [6]: 99.8%; viability, T/C [7]: 63.5%; viability, T/C [8]: 36.6%; viability, T/C (second compound 0.316 µM, first compound 0.949 µM): 14.4%; viability, T/C (second compound 0.316 µM, first compound 3 µM): 5.66%; viability, T/C [9]: 110%; viability, T/C [10]: 109%; viability, T/C [11]: 65.3%; viability, T/C [12]: 31.7%; viability, T/C (second compound 1 µM, first compound 0.949 µM): 13.6%; viability, T/C (second compound 1 µM, first compound 3 µM): 5.72%; viability, T/C [13]: 94%; viability, T/C [14]: 109%; viability, T/C [15]: 61.1%; viability, T/C [16]: 34.5%; viability, T/C (second compound 3.16 µM, first compound 0.949 µM): 15.1%; viability, T/C (second compound 3.16 µM, first compound 3 µM): 5.67%; viability, T/C [17]: 38.6%; viability, T/C [18]: 34.2%; viability, T/C [19]: 30.6%; viability, T/C [20]: 21.1%; viability, T/C (second compound 10 µM, first compound 0.949 µM): 13.5%; viability, T/C (second compound 10 µM, first compound 3 µM): 7.49%
